Converted amounts (≈) assume the structure as drawn. Read-outs that look alike come from different tables or passages of the source.
How the values were obtained:
[1] = test system: E. coli ATCC 25922; test: Broth microdilution MIC, E. coli ATCC 25922; assay type: cell-based; settings: Escherichia coli
In short: (§1)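 CLSI broth microdilution in cation-supplemented Mueller-Hinton broth; 2-fold compound dilutions inoculated at 5×10^5 CFU/mL from a 3-5 h log-phase culture. Plates incubated 16-20 hours at 37° C; MIC read visually as lowest concentration with no growth.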

[2] = test system: E. coli AG100; test: Broth microdilution MIC, E. coli AG100 (wild-type parent); assay type: cell-based; settings: Escherichia coli; wild-type parent E. coli AG100, broth microdilution; read-out: MIC E. coli AG100
In short: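 Broth microdilution in cation-supplemented Mueller-Hinton broth, 2-fold serial compound dilutions, inoculum 5×10^5 CFU/mL from 3-5 h log culture.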

[3] = test system: E. coli 901C; test: microbe, parasite or virus in culture; assay type: cell-based; settings: Escherichia coli; hyper-permeable E. coli 901C, broth microdilution; read-out: MIC E. coli 901C
In short: as §1

[4] = test system: E. coli AG100A; test: microbe, parasite or virus in culture; assay type: cell-based; settings: Escherichia coli, read-out: MIC E. coli AG100A
In short: as §1

[5] = test system: E. coli D22; test: microbe, parasite or virus in culture; assay type: cell-based; settings: Escherichia coli; hyper-permeable E. coli D22, broth microdilution; read-out: MIC E. coli D22
In short: as §1

[6] = test system: K. pneumoniae SI-117; test: microbe, parasite or virus in culture; assay type: cell-based; settings: Klebsiella pneumoniae, SI117, read-out: MIC K. pneumoniae SI-117
In short: as §1

[7] = test system: K. pneumoniae UMM; test: microbe, parasite or virus in culture; assay type: cell-based; settings: Klebsiella pneumoniae; K. pneumoniae UMM producing SHV-5 and KPC-2; read-out: MIC K. pneumoniae UMM
In short: as §1

[8] = test system: K. pneumoniae 848844; test: microbe, parasite or virus in culture; assay type: cell-based, Klebsiella pneumoniae; settings: Klebsiella pneumoniae; K. pneumoniae 848844 producing SHV-11 and KPC-2; read-out: MIC K. pneumoniae 848844
In short: as §1

[9] = test system: N. gonorrhoeae ATCC 49226; test: Liquid broth MIC, N. gonorrhoeae ATCC 49226; assay type: cell-based; settings: Neisseria gonorrhoeae, ATCC49226; N. gonorrhoeae ATCC 49226, liquid broth; read-out: Minimum Inhibitory Concentration, N. gonorrhoeae ATCC 49226
In short: (§2)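 MIC taken by eye as the lowest well lacking growth after 40-42 h at 36° C under 5% CO2. Compounds were 2-fold serially diluted; the starting inoculum of 5×10^5 CFU/mL came from direct colony suspensions grown on Kellogg's-supplemented GC agar.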

[10] = test system: N. gonorrhoeae FA1090; test: Liquid broth MIC, N. gonorrhoeae FA1090; assay type: cell-based; settings: Neisseria gonorrhoeae; N. gonorrhoeae FA1090, liquid broth; read-out: Minimum Inhibitory Concentration, N. gonorrhoeae FA1090
In short: as §2

[11] = test system: N. gonorrhoeae WHO F; test: Liquid broth MIC, N. gonorrhoeae WHO F; assay type: cell-based; settings: Neisseria gonorrhoeae; N. gonorrhoeae WHO F, liquid broth; read-out: Minimum Inhibitory Concentration, N. gonorrhoeae WHO F
In short: as §2

[12] = test system: N. gonorrhoeae FA19; test: Liquid broth MIC, N. gonorrhoeae FA19; assay type: cell-based; settings: Neisseria gonorrhoeae; N. gonorrhoeae FA19, liquid broth; read-out: Minimum Inhibitory Concentration, N. gonorrhoeae FA19
In short: as §2

[13] = ATCC25922, E. coli ATCC 25922, broth microdilution, read-out: MIC E. coli 25922

Compound | MIC [1, 13] [µg/mL] | MIC [2] [µg/mL] | MIC [3] [µg/mL] | MIC [4] [µg/mL] | MIC [5] [µg/mL] | MIC [6] [µg/mL] | MIC [7] [µg/mL] | MIC [8] [µg/mL] | MIC ([1]; ATCC25922, read-out: MIC E. coli 25922) [µg/mL] | MIC [9] [µg/mL] | MIC [10] [µg/mL] | MIC [11] [µg/mL] | MIC [12] [µg/mL]
CCN1CCN(C(=O)NC(C(=O)N[C@H]2Cc3cc(F)cc(C(=O)O)c3OB2O)c2csc(N)n2)C(=O)C1=O (stereo partly drawn) [Example 16, (3R)-3-(2-(2-aminothiazol-4-yl)-2-(4-ethyl-2,3-dioxopiperazine-1-carboxamido)acetamido)-6-fluoro-2-hydroxy-3,4-dihydro-2H-benzo[e][1,2]oxaborinine-8-carboxylic acid] | 32 to 64 | 32 to 64 | 0.5 to 1 | 2 to 4 | 8 to 16 | 32 to 64 | 32 to 64 | 32 to 64 |  |  |  |  | 
CCN1CCN(C(=O)NC(C(=O)N[C@H]2Cc3cccc(C(=O)O)c3OB2O)c2ccc(O)cc2)C(=O)C1=O (stereo partly drawn) [Example 27, (3R)-3-(2-(4-ethyl-2,3-dioxopiperazine-1-carboxamido)-2-(4-hydroxyphenyl)acetamido)-2-hydroxy-3,4-dihydro-2H-benzo[e][1,2]oxaborinine-8-carboxylic acid] |  | 32 to 64 | 0.5 to 1 | 2 to 4 | 8 to 16 | 32 to 64 | 32 to 64 | > 128 | 32 to 64 |  |  |  | 
CCN1CCN(C(=O)NC(C(=O)N[C@H]2Cc3cccc(C(=O)O)c3OB2O)c2ccc(O)c(O)c2Cl)C(=O)C1=O (stereo partly drawn) [Example 37, (3R)-3-(2-(2-chloro-3,4-dihydroxyphenyl)-2-(4-ethyl-2,3-dioxopiperazine-1-carboxamido)acetamido)-2-hydroxy-3,4-dihydro-2H-benzo[e][1,2]oxaborinine-8-carboxylic acid] | 32 to 64 | 32 to 64 | 0.5 to 1 | 2 to 4 |  |  | 8 to 16 |  |  | 4 to 8 (≈ 6.96 to 13.9 µM) | 1 to 2 (≈ 1.74 to 3.48 µM) | 1 to 2 (≈ 1.74 to 3.48 µM) | 4 to 8 (≈ 6.96 to 13.9 µM)
CCN1CCN(C(=O)NC(C(=O)N[C@H]2Cc3cccc(C(=O)O)c3OB2O)c2cnc(N)s2)C(=O)C1=O (stereo partly drawn) [Example 51, (3R)-3-(2-(2-aminothiazol-5-yl)-2-(4-ethyl-2,3-dioxopiperazine-1-carboxamido)acetamido)-2-hydroxy-3,4-dihydro-2H-benzo[e][1,2]oxaborinine-8-carboxylic acid] | 8 to 16 | 32 to 64 | 0.5 to 1 | 8 to 16 |  |  | 32 to 64 |  |  |  |  |  | 
O=C(O)c1cccc2c1OB(O)[C@@H](NC(=O)C(NC(=O)N1CCN(CCF)C(=O)C1=O)c1ccc(O)c(O)c1Cl)C2 (stereo partly drawn) [Example 71, (3R)-3-(2-(2-chloro-3,4-dihydroxyphenyl)-2-(4-(2-fluoroethyl)-2,3-dioxopiperazine-1-carboxamido)acetamido)-2-hydroxy-3,4-dihydro-2H-benzo[e][1,2]oxaborinine-8-carboxylic acid] | 8 to 16 | 2 to 4 | 0.5 to 1 | 2 to 4 |  |  | 32 to 64 |  |  |  |  |  | 
CCCN1CCN(C(=O)NC(C(=O)N[C@H]2Cc3cccc(C(=O)O)c3OB2O)c2ccc(O)c(O)c2Cl)C(=O)C1=O (stereo partly drawn) [Example 82, (3R)-3-(2-(2-chloro-3,4-dihydroxyphenyl)-2-(2,3-dioxo-4-propylpiperazine-1-carboxamido)acetamido)-2-hydroxy-3,4-dihydro-2H-benzo[e][1,2]oxaborinine-8-carboxylic acid] | 32 to 64 | 32 to 64 | 2 to 4 | 2 to 4 | 2 to 4 | 32 to 64 | 32 to 64 | > 128 |  |  |  |  | 
CCN1CCN(C(=O)NC(C(=O)N[C@H]2Cc3cccc(C(=O)O)c3OB2O)c2ccc(O)cc2F)C(=O)C1=O (stereo partly drawn) [Example 87, (3R)-3-(2-(4-ethyl-2,3-dioxopiperazine-1-carboxamido)-2-(2-fluoro-4-hydroxyphenyl)acetamido)-2-hydroxy-3,4-dihydro-2H-benzo[e][1,2]oxaborinine-8-carboxylic acid] |  |  |  |  |  |  |  |  |  | 1 to 2 (≈ 1.84 to 3.69 µM) | < 0.125 | < 0.125 | 4 to 8 (≈ 7.38 to 14.8 µM)
CCN1CCN(C(=O)NC(C(=O)N[C@H]2Cc3cccc(C(=O)O)c3OB2O)c2cc(O)c(O)cc2F)C(=O)C1=O (stereo partly drawn) [Example 90, (3R)-3-(2-(4-ethyl-2,3-dioxopiperazine-1-carboxamido)-2-(2-fluoro-4,5-dihydroxyphenyl)acetamido)-2-hydroxy-3,4-dihydro-2H-benzo[e][1,2]oxaborinine-8-carboxylic acid] | 8 to 16 | 8 to 16 | 0.5 to 1 | 2 to 4 | 8 to 16 | > 128 | 8 to 16 | 32 to 64 |  |  |  |  | 
CCN1CCN(C(=O)NC(C(=O)N[C@H]2Cc3cccc(C(=O)O)c3OB2O)c2cccc(N)n2)C(=O)C1=O (stereo partly drawn) [Example 104, (3R)-3-(2-(6-aminopyridin-2-yl)-2-(4-ethyl-2,3-dioxopiperazine-1-carboxamido)acetamido)-2-hydroxy-3,4-dihydro-2H-benzo[e][1,2]oxaborinine-8-carboxylic acid] | 8 to 16 | 32 to 64 | < 0.25 | 0.5 to 1 | 2 to 4 | 32 to 64 | 32 to 64 | > 128 |  |  |  |  | 
CCN1CCN(C(=O)NC(C(=O)N[C@H]2Cc3cccc(C(=O)[O-])c3OB2O)c2ccc[n+](CC(N)=O)c2)C(=O)C1=O (stereo partly drawn) [Example 107, (3R)-3-(2-(1-(2-amino-2-oxoethyl)pyridin-1-ium-3-yl)-2-(4-ethyl-2,3-dioxopiperazine-1-carboxamido)acetamido)-2-hydroxy-3,4-dihydro-2H-benzo[e][1,2]oxaborinine-8-carboxylate] | 32 to 64 | 32 to 64 | 8 to 16 | 8 to 16 | 32 to 64 | 32 to 64 | 32 to 64 | 32 to 64 |  |  |  |  | 
CCN1CCN(C(=O)N[C@@H](C(=O)N[C@H]2Cc3ccc(F)c(C(=O)O)c3OB2O)[C@@H](C)O)C(=O)C1=O [Example 110, (R)-3-((2R,3R)-2-(4-ethyl-2,3-dioxopiperazine-1-carboxamido)-3-hydroxybutanamido)-7-fluoro-2-hydroxy-3,4-dihydro-2H-benzo[e][1,2]oxaborinine-8-carboxylic acid] | 8 to 16 | 8 to 16 | 2 to 4 | 8 to 16 | 8 to 16 | 8 to 16 | 8 to 16 | 32 to 64 |  |  |  |  | 
CCN1CCN(C(=O)NC(C(=O)N[C@H]2Cc3cccc(C(=O)O)c3OB2O)c2cccs2)C(=O)C1=O (stereo partly drawn) [Example 115, (3R)-3-(2-(4-ethyl-2,3-dioxopiperazine-1-carboxamido)-2-(thiophen-2-yl)acetamido)-2-hydroxy-3,4-dihydro-2H-benzo[e][1,2]oxaborinine-8-carboxylic acid] | 32 to 64 | 32 to 64 | < 0.25 | 2 to 4 | 8 to 16 | 32 to 64 | 32 to 64 | > 128 |  |  |  |  | 
CCN1CCN(C(=O)NC(C(=O)N[C@H]2Cc3cccc(C(=O)O)c3OB2O)c2cccc(O)n2)C(=O)C1=O (stereo partly drawn) [Example 117, (3R)-3-(2-(4-ethyl-2,3-dioxopiperazine-1-carboxamido)-2-(6-hydroxypyridin-2-yl)acetamido)-2-hydroxy-3,4-dihydro-2H-benzo[e][1,2]oxaborinine-8-carboxylic acid] | 32 to 64 | > 128 | 0.5 to 1 | 2 to 4 | 8 to 16 | > 128 | 32 to 64 | 32 to 64 |  |  |  |  | 
CCN1CCN(C(=O)NC(C(=O)N[C@H]2Cc3cccc(C(=O)O)c3OB2O)c2cnc(O)cn2)C(=O)C1=O (stereo partly drawn) [Example 121, (3R)-3-(2-(4-ethyl-2,3-dioxopiperazine-1-carboxamido)-2-(5-hydroxypyrazin-2-yl)acetamido)-2-hydroxy-3,4-dihydro-2H-benzo[e][1,2]oxaborinine-8-carboxylic acid] | 32 to 64 | 32 to 64 | 0.5 to 1 | 2 to 4 | 8 to 16 | 32 to 64 | 8 to 16 | > 128 |  |  |  |  | 

Source: patent US12173018B2, “Penicillin-binding protein inhibitors” (priority 2018, dated 2024)
